Melting point data for 88 compounds are collected here from a melting point compilation (Tetko et al.; mined from patent text by program, amines drawn as free bases though some values may be those of a salt).

Some results are limits rather than exact numbers.

For the compound `NC(=O)N1CCCN(NC(=O)c2cc(=O)c(O)c[nH]2)C1=O`, the melting point fell in the range of 215 to 220 °C.
With `COc1ccc(Br)c(Sc2nc3c(N)nccc3n2CCCNC(C)C)c1`, the melting point is 125 to 129 °C.
The compound `CCOC(=O)n1ccc(=O)c2cnc(N3CCN(CC)CC3)nc21` gave a melting point of 161 °C.
`COC1=CC(=O)c2c(cc(Br)c(O)c2Br)C1=O` had a melting point of 224 to 228 °C.
`COc1cccc(C=CC(=O)C2C(=O)CCC2=O)c1O` registered a melting point of 198 to 200 °C.
With `Cc1ncc(CNC(=O)c2sc(N3CCN(Cc4ccc(F)cc4)C3=O)nc2C)s1` the figure was 213 to 215 °C.
`Oc1cc2c3ccc(O)c(O)c3n(Cc3ccc(C(F)(F)F)cc3)c2cc1O`: the melting point was in the range of 266 to 270 °C.
Compound `CC(C)(C)c1ccc(OCC(=O)Nc2nnc(-c3cccc(Oc4cccc(C(F)(F)F)c4)c3)s2)cc1` registered a melting point of 179 to 180 °C.
With `O=S(=O)(c1scc(Br)c1Br)n1nnc2c(Br)cc(C(F)(F)F)cc21` the figure was 192 to 195 °C.
To `CC(=O)C=Cc1ccc2sccc2c1` belongs 75 °C.
With `Cc1[nH]c(=S)n(Nc2ccccc2)c1C` the figure was 217 to 219 °C; with `COCCc1nc2c(N)nc3ccccc3c2n1CCCNC(=O)N1CCOCC1`, 194 to 196 °C; with `CCCCCCCCCCCCCCCCN(C(=O)C(F)(F)F)c1ccc(C(=O)Nc2ccc(C(=O)OCC)cc2)cc1`, 91 to 93 °C.
The compound `COc1ccc(-c2nc(Cl)nc(Cl)n2)cc1` displayed a melting point of 131 to 134 °C.
In turn, `CC(=NO)c1ccc2c(c1)C(=NNc1cccc(S(N)(=O)=O)c1C)C(=O)N2` gave a melting point greater than 250 °C.
With `CCCCCCCCCCCCNC(=O)c1cc(Br)c(OCC(=O)O)c(-c2ccccc2F)c1` the figure was 128 to 138 °C.
With `OCCCOc1cc(-c2ccccc2)cc(-c2ccccc2)n1` the figure was 94 °C; with `CC(C)(C)OC(=O)NC(CC1CCCCC1)C(O)C(O)C(CC1CCCCC1)NC(=O)OC(C)(C)C` (stereo not drawn), 224 to 226 °C; with `CCN[C@H]1C[C@H](CCCOCCOC)S(=O)(=O)c2sc(S(N)(=O)=O)cc21` (relative stereo), 177 to 179 °C.
To `O=C1OCc2c(c3cc(-c4ccc(OC(F)(F)F)cc4)ccc3n2Cc2ccccc2)C1=O` belongs 239 to 240 °C; to `NNc1nnc(Cl)cc1N`, 190 °C; to `O=C(Cl)OCC1c2ccccc2Oc2ccccc21`, 64 to 65 °C.
Compound `BrCc1noc2ccccc12` yielded a melting point of 60 to 62 °C.
With `CNC(=O)c1cccc(NC(=O)Cc2ccc(F)cc2)c1` the figure was 155 to 156 °C.
To `O=C(NCc1ccc(I)cc1Cl)C1CC1` belongs 158 to 160 °C.
With `CS(=O)(=O)Nc1cccc(-c2ccc(S(=O)(=O)n3ccc(C=CC(=O)NO)c3)cc2)c1` the figure was 137 to 148 °C.
`O=C(C#Cc1ccc(Cl)cc1Cl)Nc1ccc2oc(CCN3CCCC3)nc2c1` came in with a melting point of 130 °C.
With `N#Cc1cnc2c(oc3ccccc32)c1O` the figure was greater than 310 °C; with `NC(=O)CCCOc1cccc(-c2n[nH]c3c2Cc2ccccc2-3)c1`, 200 to 202 °C.
As to `COc1ccc(Cl)cc1Nc1c(C#N)cnc2cc(OC)c(OC)cc12`, the melting point lay within 200 to 202 °C.
To `CC1Cc2ccc(O)cc2C1(C)C` (stereo not drawn) belongs 66 to 67 °C.
With `CC(=O)SCC(CC(N)=O)C(=O)O` (stereo not drawn) the figure was 110 to 111 °C; with `COC(C)(OC)C(C#N)=Cc1ccccc1`, 45 to 46 °C; with `COc1ccc2c(c1)C(c1ccc(N)cc1)=NN(C(C)=O)C(C)C2` (stereo not drawn), 237 to 238 °C.
To `O=c1c2ccc(Cl)cc2ncn1CCCCn1ccnc1` belongs 123 to 125 °C; to `Cc1ccc(OCC(=O)O)c2c3c(C(N)=O)cccc3n(Cc3ccccc3)c12`, 253 to 254 °C; to `COC1(Cl)C=CC=CC1Oc1c(Cl)ncnc1Cl` (stereo not drawn), 88 to 89 °C.
For `C=CCOc1ccc(C(=O)Oc2ccc(O)cc2)cc1`, the melting point worked out at 146 °C.
To `CC(C)(C)OC(=O)N=C(NC(=O)OC(C)(C)C)N1CCC(n2ccc3ccccc32)CC1` belongs 115 to 118 °C; to `COCc1nnc(N)s1`, 177 to 179 °C; to `CCCCCCCCc1ccc(CCC(CC)(CCOC(C)=O)NC(C)=O)cc1` (stereo not drawn), 108 to 110 °C.
With `O=C1CCC(N2Cc3cc(CNC(=O)Nc4ccc(Cl)c(C(F)(F)F)c4)ccc3C2=O)C(=O)N1` (stereo not drawn) the figure was 261 to 263 °C.
To `CCC(COC)NC(=O)C(C)(C)c1ccc(-c2ccccc2)c(F)c1` (stereo not drawn) belongs 81 to 82 °C; to `COc1ccc2c(c1)[nH]c1cc(OC)ccc12`, 273 to 274 °C.
Compound `CCOC(=O)CCc1oc(-n2ccnc2)nc1-c1ccc(Cl)cc1` had a melting point of 67 to 68 °C.
`C=CCN1C(=O)CCc2cc(Sc3cccc([C@@]4(O)CCO[C@@H](C)C4)c3)ccc21` registered a melting point of 107 to 109 °C.
To `CC(C)(CCn1ccnc1)NCC(O)c1ccc(O)c(CO)c1` (stereo not drawn) belongs 135 to 137 °C; to `CCCCCCCCCCCCc1cc(CO)on1`, 61 to 63 °C.
With `Cc1cccc2c3c(n(Cc4ccc(F)cc4)c12)CCCC3=O` the figure was 154 to 155 °C; with `CCS(=O)(=O)Nc1cc(-c2ncnc(C(F)F)c2Cl)c(F)cc1Cl`, 138 to 139 °C; with `COc1ccc2c(c1)c1c(n2-c2ccccc2)C(=O)CO1`, 175 °C.
Consider `O=C(O)C1=Cc2cc(-c3cccs3)ccc2OC1C(F)(F)F` (stereo not drawn), for which the melting point is 209 to 212 °C.
With `CCOC(=O)CCc1cn(Cc2ccc(OCc3nc(-c4ccccc4)oc3C)cc2)nc1-c1ccc(F)cc1` the figure was 93 to 94 °C; with `COc1c(Cl)ccc(-c2nc(C(=O)OC(C)C)c(I)c(N)c2F)c1F`, 134 to 135 °C; with `CSC(=O)c1c(C(F)F)nc(C(F)(F)F)c(C(=O)SC)c1N`, 160 to 161 °C.
With `O=C(C=Cc1ccc(F)cc1)c1cccs1` the figure was 117 to 120 °C; with `C#Cc1cc2c(Nc3ccc4c(cnn4Cc4ccccc4)c3)ncnc2s1`, 195 °C; with `Cc1nc(-c2ccc(-c3cscn3)cc2)c(-c2ccc(S(C)(=O)=O)c(F)c2)o1`, 196 to 197 °C.
With `COc1ccccc1C(CSc1ccccc1N)C(=O)O` (stereo not drawn) the figure was 85 °C; with `CC(C)(C)c1ccc(CNC(=S)NC(C)(C)c2ccc(NS(C)(=O)=O)cc2)cc1`, 161 to 164 °C; with `COc1ccc(CNc2cc(C(c3cc(F)ccc3F)S(=O)(=O)c3ccc(F)cc3)c(Cl)cn2)cc1OC` (stereo not drawn), 158 to 159 °C.
The compound `Cc1c(-c2ccccc2)n(-c2ccc(F)cc2)c(-c2ccccc2)cc1=O` yielded a melting point of 256 to 259 °C.
With `CCCc1c(OCCCCCOc2ccc3ccc(OCC(=O)OCC)cc3c2CCC(=O)OCC)ccc2c1OCCC2=O` the figure was 68 to 69.5 °C; with `CN1CCN(Cc2cc(-c3ccc4c(c3)CCO4)nn(CC3CC3)c2=O)CC1`, 128 to 130 °C; with `CCOC(=O)c1ccc(NCCOc2cccc3c2CCCC3)cc1`, 133 to 135 °C.
With `COC(=O)c1ccccc1-c1nc2cc(CBr)ccc2o1` the figure was 92 to 95 °C; with `CC(O)(c1ccc(Cl)cc1)c1cc2ccccc2o1` (stereo not drawn), 64 to 66 °C; with `Cc1sc(N2C(=O)c3ccccc3C2=O)c(C(=O)c2ccc(Cl)cc2)c1CBr`, 173 to 175 °C.
To `COc1ccc2c(c1)C(N1CCN(C)CC1)c1ccccc1CC2` (stereo not drawn) belongs 119 to 120 °C.
Turning to `Cc1ccc(-c2c(NS(=O)(=O)c3ccc(C(C)(C)C)cc3)ncnc2OCCOc2ncc(C=O)cn2)cc1`, the melting point was 191 to 193 °C.
With `Cc1ncc(C(=O)N(C)Cc2cc(C(F)(F)F)cc(C(F)(F)F)c2)c(-c2ccccc2Br)n1` the figure was 122 °C; with `COC(=O)Cc1sc(=O)[nH]c1/C=C/c1ccccc1`, 164 °C.
With `CNCCOc1cccc2c1c1cc(C)ccc1n2Cc1ccccc1` the figure was 96 to 96.8 °C; with `Cc1cc(CNC(=O)c2cc(N3CCN(Cc4ccc(F)cc4)C3=O)n[nH]2)n[nH]1`, 254 to 255 °C; with `CS(=O)(=O)c1ccc(-c2cnn(CC(F)(F)F)c(=O)c2C2=CCCCC2)cc1`, 75 to 81 °C.
With `CCC(=O)C1=C(O)CC(c2c(C)cc(C)cc2C)CC1=O` (stereo not drawn) the figure was 86 to 88 °C.
`C=C1CC(C)(c2ccc(Nc3c4ccccc4nc4occc34)cc2)OC1=O` (stereo not drawn): the melting point lay within 85 to 87 °C.
With `COC(=O)c1cccc([N+](=O)[O-])c1CBr` the figure was 67 to 70 °C; with `CC(=O)N1c2ccccc2CCc2ccc(C(=O)O)cc21`, 189 to 190 °C.
As to `CC(=O)NC[C@H]1CN(c2ccc(-c3ncno3)c(F)c2)C(=O)O1`, the melting point was 199 to 200 °C.
To `O=C(O)C1=CSC2C(=Cc3nc4ncc5c(n4n3)CCC3(C5)OCCO3)C(=O)N12` (stereo not drawn) belongs greater than 250 °C; to `CCCCCCCCCCCCCCCC(=O)OC(CCCCCCCCCCCCCC)C(=O)O` (stereo not drawn), 55 to 56 °C.
To `CCN1CCN(c2ccc(CC3=C(C)C(=O)c4ccccc4C3=O)cc2)CC1` belongs 81 to 82 °C; to `CCCc1nc(C(=O)OC)c(C(=O)OC)n1Cc1ccc(-c2ccccc2-c2nnnn2C(c2ccccc2)(c2ccccc2)c2ccccc2)cc1`, 124 to 126 °C.
As for `CC(C)C(=O)C(C#N)=C(O)c1ccc(C(F)(F)F)cc1[N+](=O)[O-]`, the melting point was in the range of 83 to 85 °C.
The compound `O[C@@H]1c2ccccc2CC[C@H]1N1CCC(O)(c2ccccc2)CC1` (relative stereo) registered a melting point of 184 °C.
With `O=c1ccoc2cc(OS(=O)(=O)C(F)(F)F)ccc12` the figure was 43 to 44 °C.
With `CC(C)(C)c1ccc(Sc2ccc(C=C3SC(=S)NC3=O)cc2)cc1` the figure was 211 to 212 °C.
